# Several values for one entry are separate records, joined by “and”; a condition that tells them apart may be missing. Equal entries are not always repeated.
# Experiments:
# Assay type in all cases: binding
# [1] = system: rabbit anti-anthrax spore IgG
# [2] = system: rabbit anti-B. anthracis spore polyclonal IgG antibodies
# [3] = system: rabbit anti-B. anthracis spore polyclonal IgG antibodies; remark: listed apart in the source
# [4] = system: rabbit anti-anthrax spore IgG; remark: listed apart in the source
Molecule,IgG signal detected by glycan arrays (n = 3) Mean [2],antibody reactivity detected by glycan arrays [2],further results
"COC(=O)CCCCCO[C@H]1O[C@@H](C)[C@H](O)[C@@H](O)[C@H]1O[C@@H]1O[C@@H](C)[C@H](O)[C@@H](O[C@@H]2O[C@@H](C)[C@H](O)[C@@H](O[C@@H]3O[C@H](C)[C@@H](NC(=O)CC(C)(C)O)[C@H](O)[C@H]3OC)[C@H]2O)[C@H]1O [Saccharide 4, 5-(Methoxycarbonyl)pentyl 4-(3-hydroxy-3-methylbutanamido)-2-O-methyl-4,6-dideoxy-β-D-glucopyranosyl-(1→3)-α-L-rhamnopyranoyl-(1→3)-α-L-rhamnopyranosyl-(1→2)-β-L-rhamnopyranoside]",5.16,significant amounts of IgG antibodies,I^50 [1]: 0.23 nmol
"COC(=O)CCCCCO[C@@H]1O[C@H](C)[C@@H](NC(=O)CC(C)(C)O)[C@H](O)[C@H]1OC [Saccharide 1, 5-(Methoxycarbonyl)pentyl 4-(3-hydroxy-3-methylbutanamido)-2-O-methyl-4,6-dideoxy-β-D-glucopyranoside]",1.44,marginally reactive,blocking of antibody reactivity with anthrose-containing tri- and tetra-saccharides [3]: blocked the antibody reactivity; inhibition of other antibody reactivities: binding to isolichenin and Pn 23 polysaccharide [3]: no significant inhibition; I^50 [1]: 7.3 nmol; IC50 [4]: 0.688 nM; relative inhibiting powers [4]: 43.3
"COC(=O)CCCCCO[C@@H]1O[C@@H](C)[C@H](O)[C@@H](O)[C@H]1O[C@@H]1O[C@@H](C)[C@H](O)[C@@H](O[C@@H]2O[C@H](C)[C@@H](NC(=O)CC(C)(C)O)[C@H](O)[C@H]2OC)[C@H]1O [Saccharide 3, 5-(Methoxycarbonyl)pentyl 4-(3-hydroxy-3-methylbutanamido)-2-O-methyl-4,6-dideoxy-β-D-glucopyranosyl-(1→3)-α-L-rhamnopyranosyl-(1→2)-α-L-rhamnopyranoside]",2.73,significant amounts of IgG antibodies,IC50 [4]: 0.016 nM; relative inhibiting powers [4]: 1.00
"COC(=O)CCCCCO[C@@H]1O[C@@H](C)[C@H](O)[C@@H](O)[C@H]1O[C@@H]1O[C@@H](C)[C@H](O)[C@@H](O[C@@H]2O[C@@H](C)[C@H](O)[C@@H](O)[C@H]2O)[C@H]1O [Saccharide 17, 5-(Methoxycarbonyl)pentyl α-L-rhamnopyranosyl-(1→3)-α-L-rhamnopyranosyl-(1→2)-α-L-rhamnopyranoside]",0.98,–,IgG reactivities (Ratio of Sg./bg.) Mean [3]: 1.04 and 0.97 and 1.00 and 0.99
Nigerose [reference compound],–,–,inhibition of antibody reactivity with anthrose-tetrasaccharide [4]: no inhibition
"[Methyl 2-O-methyl-4,6-dideoxy-4-(3-deoxy-L-glycero-tetronamido)-<-D-mannopyranosyl-(1→2)-tris[4,6-dideoxy-4-(3-deoxy-L-glycero-tetronamido)-<-D-mannopyranosyl-(1→2)]-4,6-dideoxy-4-(3-deoxy-L-glycero-tetronamido)-<-D-mannopyranoside]10-BSA [Saccharide 33]",1.37,–,–
"CO[C@H]1O[C@H](C)[C@@H](NC(=O)[C@@H](O)CCO)[C@H](O)[C@@H]1O[C@H]1O[C@H](C)[C@@H](NC(=O)[C@@H](O)CCO)[C@H](O)[C@@H]1O[C@H]1O[C@H](C)[C@@H](NC(=O)[C@@H](O)CCO)[C@H](O)[C@@H]1OC [Saccharide 27, Methyl 2-O-methyl-4,6-dideoxy-4-(3-deoxy-L-glycero-tetronamido)-<-D-mannopyranosyl-(1→2)-4,6-dideoxy-4-(3-deoxy-L-glycero-tetronamido)-<-D-mannopyranosyl-(1→2)-4,6-dideoxy-4-(3-deoxy-L-glycero-tetronamido)-<-D-mannopyranoside]",1.01,–,–
"COC(=O)CCCCCO[C@H]1O[C@@H](C)[C@H](O)[C@@H](O)[C@H]1O[C@@H]1O[C@@H](C)[C@H](O)[C@@H](O)[C@H]1O [Saccharide 19, 5-(Methoxycarbonyl)pentyl α-L-rhamnopyranosyl-(1→2)-β-L-rhamnopyranoside]",0.98,–,–
"isomaltopentose [IM5, reference compound]",–,–,inhibition of antibody reactivity with anthrose-tetrasaccharide [4]: no inhibition
"C[C@@H](O)[C@H](O)[C@H](O)[C@@H](O)C=O [Saccharide 7, D-Fucose]",1.88,–,–
"COC(=O)CCCCCO[C@@H]1O[C@@H](C)[C@H](O)[C@@H](O[C@@H]2O[C@H](C)[C@@H](NC(=O)CC(C)(C)O)[C@H](O)[C@H]2OC)[C@H]1O [Saccharide 2, 5-(Methoxycarbonyl)pentyl 4-(3-hydroxy-3-methylbutanamido)-2-O-methyl-4,6-dideoxy-β-D-glucopyranosyl-(1→3)-α-L-rhamnopyranoside]",1.65,marginally reactive,IC50 [4]: 0.019 nM; relative inhibiting powers [4]: 1.18
"CC(=O)N[C@@H](C=O)[C@@H](O)[C@@H](O)[C@H](O)CO [Saccharide 11, N-acetyl-2-amino-2-deoxy-D-galactose]",1.03,–,–
"COC(=O)CCCCCO[C@@H]1O[C@@H](C)[C@H](O)[C@@H](O)[C@H]1O[C@@H]1O[C@@H](C)[C@H](O)[C@@H](O[C@@H]2O[C@@H](C)[C@H](O)[C@@H](O[C@@H]3O[C@H](C)[C@@H](NC(=O)CC(C)(C)O)[C@H](O)[C@H]3OC)[C@H]2O)[C@H]1O [Saccharide 5, 5-(Methoxycarbonyl)pentyl 4-(3-hydroxy-3-methylbutanamido)-2-O-methyl-4,6-dideoxy-β-D-glucopyranosyl-(1→3)-α-L-rhamnopyranoyl-(1→3)-α-L-rhamnopyranosyl-(1→2)-α-L-rhamnopyranoside]",5.19,significant amounts of IgG antibodies,I^50 [1]: 0.18 nmol
"O=C[C@@H](O)[C@@H](O)[C@H](O)[C@H](O)CO [Saccharide 10, D-Mannose]",1.03,–,–
"CO[C@H]1O[C@H](CO)[C@H](O)[C@H](O)[C@H]1O[C@@H]1O[C@@H](C)[C@H](O)[C@@H](O[C@@H]2O[C@@H](C)[C@H](O)[C@@H](O[C@H]3O[C@H](CO)[C@@H](O)[C@H](O)[C@H]3NC(C)=O)[C@H]2O)[C@H]1O [Saccharide 22, Methyl 2-acetamido-2-deoxy-<-D-glucopyranosyl-(1→3)-<-L-rhamnopyranosyl-(1→3)-<-L-rhamnopyranosyl-(1→2)-<-D-galactopyranoside, reference compound]",0.95,–,–

# Reference: patent US20150265691A1 (priority 2006, published 2015)
